Assays:
[1] = test system: cancer cells lifted from the culture (gemcitabine-treated pancreatic tumor cultures); assay: impedance cytometry of cancer cell samples exposed to chemotherapeutic drug; assay type: cell-based; conditions: about 48 hours, FIG. 2A/2B
Source text: Individual cells from the biological sample or culture 102 can flow (e.g., propelled via a focusing flow channel of the impedance cytometry device 104) through the main channel 114 of the test cell 106 at a specified throughput (e.g., within a range of about 200 cells/s to about 500 cells/s) past electrodes or microelectrodes under an AC electric field applied over a specified range of frequencies (e.g., within a range between about 0.5 megahertz (MHz) to 50 MHz). In an example, an impedance of respective detected specimen can be measured by the measurement circuitry 108 concurrently or simultaneously using a plurality of discrete frequencies, e.g., a reference frequency within a range of about 15 MHz and about 20 MHz, and one or more analysis frequencies within a specified analysis frequency range. […] The electrophysiology of the cancer cells lifted from the culture after various gemcitabine treatment conditions can be measured by impedance cytometry to determine impedance magnitude (|Z|) and impedance phase (ϕZ) at a low (0.5 MHz) and a high frequency (18 MHz) for analyzing individual cellular 204 and/or sub-cellular 202 events. […] At a specified threshold frequency (e.g., at about 18 MHz), the impedance signal can be effectively determined by the dielectric properties of the cell interior, rather than properties the cell exterior. […]

[2] = test system: highly tumorigenic cells derived from the xenograft 122 (patient-derived tumor cells); assay: cell proliferation assays comparing phenotypes over drug concentration ranges; assay type: cell-based
Source text: FIG. 1B is a schematic example of a progression of drug resistance onset of in vitro cancer cells. In an example, a tumor tissue sample 120 can be collected from a cancer patient 118 such as via surgical resection or biopsy. Cells from the tumor tissue sample 120 can be propagated, e.g., within immunocompromised mice as a xenograft 122. […] Once propagated, the line established from the xenograft 122 can be maintained in culture for treatment from a chemotherapeutic drug 124, such as gemcitabine, a fluorouracil, doxorubicin, or any other drug used in the treatment of cancer. In an example involving gemcitabine treatment on highly tumorigenic cells derived from the xenograft 122, the range of gemcitabine levels that lead to drug sensitivity can be assessed by cell proliferation assays 126. Depending on the drug treatment, the in vitro cancer cells can be drug resistant, e.g., with varying degrees of resistance to one or more drugs. The CAFs can also be further propagated in vitro and subjected to additional drug treatment(s) to further examine the drug resistance of the cancer cells. […] These structures can be associated with apoptosis-induced cell disassembly, which generates ABs of particular composition and structure. These phenotypes can be used as a model to help identify and stratify ABs in subsequent patient-derived tumor cells using impedance cytometry techniques based on comparison of their single-particle sensitivity levels.

Nc1ccn([C@@H]2O[C@H](CO)[C@@H](O)C2(F)F)c(=O)n1 [chemotherapeutic drug 124, gemcitabine]
sub-cellular events (release of ABs) ([1]; increasing drug concentration 0.01, 0.1, 1 μg mL^−1 vs untreated): rise in sub-cellular events 202
impedance phase at 18 MHz (ϕZ18 MHz), cellular and sub-cellular populations ([1]; increasing drug concentration): downward shift in ϕZ18 MHz
phenotype (apoptosis-induced cell disassembly structures) ([2]; at about 0.01 μg mL^−1): generation of blebs of varying size on the plasma membrane
phenotype (apoptosis-induced cell disassembly structures) ([2]; at about 0.1 μg mL^−1): presence of large protrusions
phenotype (apoptosis-induced cell disassembly structures) ([2]; at about 1 μg mL^−1): emergence of beaded structures
